Entries after “also recorded” stand apart in the source; their conditions may differ. Where a SMILES comes first, the peptide text is derived from it. The star is where a group is joined. Cbz = O=C(OCc1ccccc1)*
What was measured:
TS cells (lung TICs) [1] = experiment: Intraperitoneal administration to NSG mice subcutaneously implanted with lung TICs; type: in vivo; details: cisplatin 4 mg/kg i.p., three days, 6 weeks
Text: (§1) 5×10^5 single cells were mixed in a 1:1 mixture of serum free DMEM/F12 and Matrigel (BD) and injected subcutaneously into the flanks of 4-6 week old male and female NOD.Cg-Prkdc^scid Il2rg^tm1wjl SzJ (Jackson Laboratories). About 6 weeks later, or when tumor sizes exceed 2 cm in length, mice were sacrificed and tumors harvested for analysis. All animal experiments were approved by the Agency for Science Technology and Research Singapore—Biological Resource Centre. Mice were randomized by sex.
Since FIDAS5 appeared to more specifically disrupt the methionine cycle and inhibit cellular methylation activities compared to D9, it was sought to test whether its systemic delivery could impact the tumorigenic potential of TS cells. These highly tumorigenic cells were first subcutaneously implanted into NSG mice and FIDAS5 (40 mg/kg) or corn oil carrier was immediately administered via intraperitoneal injection for three consecutive days. After 6 weeks, mice transiently treated with FIDAS5 produced tumors that were much smaller than carrier-treated controls. […] To exclude the possibility of general cytotoxicity associated with the inhibitor on TS cells, TS cell-implanted NSG mice were treated with cisplatin (4 mg/kg), a frontline chemotherapeutic agent that broadly target bulk cancer cells in NSCLC tumors, in the same manner (FIG. 5i). […]

[2] = tested on: histone methylation in TS cells; experiment: Western blot of methylated histones in TS cells; type: cell-based, human
Description: (§2) 1.5×10^6 cells were lysed in Llaemli-SDS buffer and then sonicated. Total protein concentration was measured by Bradford assay. Total cell lysates were separated by SDS-PAGE and transferred onto nitrocellulose, followed by blocking in 5% (v/v) milk in Tris-buffered saline in Tween 20, probing with the indicated antibodies and visualized by chemiluminescence (Roche). Primary antibodies used were anti-β-Actin (sc-47778), anti-GAPDH (sc-32233) from Santa Cruz: anti-GLDC (ab97625), anti-H3 (ab1791), anti-H3 (dimethylK36) (ab9049), anti-MAT2A (ab77471), anti-MTR (ab9209), anti-H3 (trimethylK79) (ab2621), anti-MTHFR (ab125707), anti-MTAP (ab ab55517) from Abcam; anti-H3(trimethyl K4) (39159), anti-H3(trimethyl K27)(39155), anti-H3(trimethylK36)(61101) and anti-H3(trimethylK9)(39765) from Active Motif; anti-β-catenin (BD610154) from BD Biosciences; anti-SHMT2 (HPA020549) and anti-SAHH (WH0000191M8) from Sigma; anti-Symmetric Di-Methyl Arginine Motif (13222) from CST.
(§3) To evaluate the methionine cycle as a therapeutic target in lung TICs, small molecule inhibitors that target enzymes within this pathway were employed, mimicking the effects of short-term methionine starvation (FIG. 5a). two inhibitors known to perturb methionine cycle activity and cellular methylation levels: 1) MAT2A inhibitor, FIDAS5; and 2) SAHH inhibitor, D9, which is an analog of DZNep. In a manner similar to amino acid starvation studies, TS cells were exposed transiently to the compounds for 48 h in culture and were immediately used for downstream tumorigenesis assays.

[3] = tested on: methylated histones in TS cells; experiment: Protein turnover experiment (cycloheximide) of methylated histones in TS cells; type: cell-based, human; details: MG132 10 μM with 20 μg/ml cycloheximide
Description: as §2
5×10^5 cells were treated with 20 μg/ml of cycloheximide (Sigma) and harvested for immunoblotting at indicated time points thereafter.

TS cells (lung TICs) [4] = experiment: Soft agar colony formation of pre-treated TS cells; type: cell-based, human
Description: 2.5 ml lower layer of 0.7% agar in complete DMEM/F12 with 10% fetal bovine serum was placed in 3 wells of a 6 well dish, and permitted to solidify. 2×10^4 Cells (for 3 wells) were then suspended in a 2 ml layer of 0.35% agar in complete DMEM/F12 with 10% fetal bovine serum and layered on top of the bottom layer. Colonies were stained with crystal violet and counted after approximately 2 months.
as §3

TS cells (lung TICs) [5] = experiment: Tumor formation in NSG mice after transplantation of pre-treated TS cells; type: in vivo
Text: as §1, §3

[6] = tested on: histone methylation in GLDC KD cells; experiment: Western blot of methylated histones in GLDC KD cells with metabolite supplementation; type: cell-based, human; details: SAM 500 μM 48 h, formate 0.5 mM, methyl-THF 20 μM or adenosine 200 μM
Description: (§4) 1.5×10^6 cells were lysed in Llaemli-SDS buffer and then sonicated. Total protein concentration was measured by Bradford assay. Total cell lysates were separated by SDS-PAGE and transferred onto nitrocellulose, followed by blocking in 5% (v/v) milk in Tris-buffered saline in Tween 20, probing with the indicated antibodies and visualized by chemiluminescence (Roche).

GLDC KD cells = experiment: Tumor mass in NSG mice after transplantation of SAM supplemented GLDC KD cells; type: in vivo; details: GLDC KD cells supplemented with SAM for 48 hours before xenografting
Text: as §1

[7] = tested on: MTHFR abundance in GLDC KD cells; experiment: Western blot of MTHFR in SAM supplemented GLDC KD cells; type: cell-based, human
Description: as §2

[8] = tested on: ATP levels in knockdown TS cells; experiment: Steady-state ATP levels (CellTiter-Glo) in GLDC/SHMT2 knockdown TS cells; type: cell-based, human; details: GLDC (or SHMT2) knockdown cells; formate 0.5 mM or adenosine 200 μM
Description: (§5) Cells were seeded into 96-well plates at a density of 1,000 cells/well at 10 replicate wells per condition. Cells were then left to equilibrate at 37° C. for 3 h. ATP was then quantified using the CellTiter-GLo reagent (Promega). 5 biological replicates were used.

ATP levels in Adh cells = experiment: Steady-state ATP levels (CellTiter-Glo) in Adh cells; type: cell-based, human; details: formate 0.5 mM
Description: as §5

[9] = tested on: histone methylation in MTHFR overexpressing+GLDC KD cells; experiment: Western blot of methylated histones in MTHFR overexpressing+GLDC KD cells; type: cell-based, human; details: formate 0.5 mM
Description: as §4

[10] = methionine-starved TS cells (48 h) supplemented with SAM 500 μM or homocysteine 250 μM
[11] = TS cells, 500 μM SAM in the presence of FIDAS5

SMILES: N.N.[Cl][Pt][Cl] [Cisplatin, cis-Diammineplatinum(II) dichloride]
- tumor growth (TS cells (lung TICs) [1]): unable to halt tumor growth

SMILES: N[C@@H](CCS)C(=O)O [Homocysteine, homocysteine]
- histone methylation [2, 10]: failed to rescue

SMILES: CC(C)C[C@@H](C=O)NC(=O)[C@H](CC(C)C)NC(=O)[C@H](CC(C)C)NC(=O)OCc1ccccc1 [MG132] (Cbz-Leu-Leu-Leu-aldehyde)
- high turnover of methylated histones [3]: rescued

SMILES: C[S+](CC[C@H](N)C(=O)O)C[C@H]1O[C@@H](n2cnc3c(N)ncnc32)[C@H](O)[C@@H]1O (stereo partly drawn) [SAM, S-adenosyl methionine]
- histone methylation [2, 11]: rescued, to a large extent
- histone methylation [2, 10]: restored
- colony-formation capability (TS cells (lung TICs) [4]; [11]): rescued, to a large extent
- colony-forming capability (TS cells (lung TICs) [4]; methionine starvation conditions, SAM 500 μM supplemented): rescued
- tumor-formation capability (TS cells (lung TICs) [5]; TS cells, 500 μM SAM in the presence of FIDAS5, transplanted into NSG mice): rescued, to a large extent
- tumor-forming capability (TS cells (lung TICs) [5]; methionine starvation conditions, SAM 500 μM supplemented, NSG mice): rescued
- histone methylation [6]: reestablishment of histone methylation
- tumorigenic potential (GLDC KD cells): incomplete rescue
- MTHFR abundance [7]: recovery of MTHFR abundance

SMILES: Nc1ncnc2c1ncn2[C@@H]1O[C@H](CO)[C@@H](O)[C@H]1O [adenosine, Adenosine]
- histone methylation [6]: did not rescue
- steady state ATP levels [8]: rescued ATP levels

SMILES: O=C[O-].[Na+] [formate, Sodium formate]
- histone methylation [6]: did not rescue
- steady state ATP levels [8]: could be rescued; also recorded: rescued ATP levels
- ATP levels (ATP levels in Adh cells): could not rescue
- histone methylation [9]: fully rescued

From patent publication US11872230B2, “Method of treating a methionine-dependent cancer” (Agency for Science, Technology and Research, priority 2018, dated 2024)
